{"source": "ChEMBL document CHEMBL1158047", "about": "“Lanostane triterpenoids from the Sri Lankan basidiomycete Ganoderma applanatum” (2006)"}
{"test_system": "P388", "assay": "Cytotoxicity against mouse P388 cells", "assay_type": "functional"}
{"smiles": "CC(C)=CCC[C@@H](C(=O)O)[C@H]1[C@H](O)C[C@@]2(C)C3=CC[C@H]4C(C)(C)[C@H](O)CC[C@]4(C)C3=CC[C@]12C", "Activity": ">125 µg/mL"}
{"smiles": "CC(C)=CCC[C@@H](C(=O)O)[C@H]1[C@H](O)C[C@@]2(C)C3=CC[C@H]4C(C)(C)C(=O)CC[C@]4(C)C3=CC[C@]12C", "Activity": "237 µM"}
{"smiles": "C/C(=C\\CC[C@@H](C(=O)O)[C@H]1[C@H](O)C[C@@]2(C)C3=CC[C@H]4C(C)(C)[C@H](O)CC[C@]4(C)C3=CC[C@]12C)CO", "Activity": ">125 µg/mL"}
{"smiles": "CC(C(=O)O)[C@@H](C)C(=O)C[C@@H](C)[C@H]1CC[C@@]2(C)C3=C(CC[C@]12C)[C@@]1(C)CC[C@@H](OC(=O)CC(=O)O)C(C)(C)[C@@H]1CC3", "note": "(stereo not given in full) [CARBOXYACETYLQUERCINIC ACID]", "Activity": ">125 µg/mL"}
{"smiles": "C=C(C(=O)C[C@@H](C)[C@H]1CC[C@@]2(C)C3=C(CC[C@]12C)[C@@]1(C)CC[C@@H](OC(=O)CC(=O)O)C(C)(C)[C@@H]1CC3)C(C)C(=O)O", "note": "(stereo not given in full)", "Activity": ">125 µg/mL"}
